Data: ChEMBL document CHEMBL1201862, “PubChem BioAssay data set” (2004)
Active and inactive are the calls of the source.

Tests used:
[1] = molecular target: Photoreceptor-specific nuclear receptor (Homo sapiens, UniProt Q9Y5X4); format: functional, cell-based;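 also: CHO-S cells with Gal4-NCOR and VP16-NR2E3 two-hybrid luciferase reporter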
INS1 = assay: beta cell apoptosis inhibitors, cytokine rescue, dose response, luminescence, retest (AID 449756); format: functional, cell-based; details: Rattus norvegicus;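 also: cell death triggered by IL-1 beta plus TNF-alpha plus IFN-gamma mixture; protective hits raise ATP signal compared with cytokine alone wells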
Interleukin-8 = molecular target: T1, Interleukin-8 (Homo sapiens, UniProt P10145); assay: Dose Response confirmation of uHTS small molecule hits for cystic fibrosis induced NFkb Inhibitors in a PAF-induced IL8 counterscreen.; format: functional; details: read-out: IC50_Mean
T1 sequence (P10145 whole entry): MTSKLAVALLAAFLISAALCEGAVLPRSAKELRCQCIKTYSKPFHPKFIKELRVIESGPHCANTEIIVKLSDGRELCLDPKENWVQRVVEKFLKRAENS

[2] = molecular target: DNA (cytosine-5)-methyltransferase 1 (Homo sapiens, UniProt P26358); assay: DNMT1 methyltransferase inhibitors, confirmation, biochemical, fluorescent molecular beacon (AID 602386); format: functional
[3] = molecular target: T2, Small ubiquitin-related modifier 1 (Homo sapiens, UniProt P63165); assay: inhibitors of SUMO1 partner interactions, dose response, biochemical, FRET (AID 624383); format: functional; details: read-out: IC50_Mean
T2 sequence (P63165 whole entry): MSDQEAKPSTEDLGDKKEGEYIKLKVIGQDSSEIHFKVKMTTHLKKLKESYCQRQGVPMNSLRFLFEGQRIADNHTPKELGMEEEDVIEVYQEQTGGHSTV

[4] = molecular target: T3, Voltage-gated N-type calcium channel alpha-1B subunit/Amyloid beta A4 precursor protein-binding family A member 1 (Homo sapiens, UniProt Q00975+Q02410); format: protein assay
T3 sequence (Q00975 whole entry, the tested form may be a part): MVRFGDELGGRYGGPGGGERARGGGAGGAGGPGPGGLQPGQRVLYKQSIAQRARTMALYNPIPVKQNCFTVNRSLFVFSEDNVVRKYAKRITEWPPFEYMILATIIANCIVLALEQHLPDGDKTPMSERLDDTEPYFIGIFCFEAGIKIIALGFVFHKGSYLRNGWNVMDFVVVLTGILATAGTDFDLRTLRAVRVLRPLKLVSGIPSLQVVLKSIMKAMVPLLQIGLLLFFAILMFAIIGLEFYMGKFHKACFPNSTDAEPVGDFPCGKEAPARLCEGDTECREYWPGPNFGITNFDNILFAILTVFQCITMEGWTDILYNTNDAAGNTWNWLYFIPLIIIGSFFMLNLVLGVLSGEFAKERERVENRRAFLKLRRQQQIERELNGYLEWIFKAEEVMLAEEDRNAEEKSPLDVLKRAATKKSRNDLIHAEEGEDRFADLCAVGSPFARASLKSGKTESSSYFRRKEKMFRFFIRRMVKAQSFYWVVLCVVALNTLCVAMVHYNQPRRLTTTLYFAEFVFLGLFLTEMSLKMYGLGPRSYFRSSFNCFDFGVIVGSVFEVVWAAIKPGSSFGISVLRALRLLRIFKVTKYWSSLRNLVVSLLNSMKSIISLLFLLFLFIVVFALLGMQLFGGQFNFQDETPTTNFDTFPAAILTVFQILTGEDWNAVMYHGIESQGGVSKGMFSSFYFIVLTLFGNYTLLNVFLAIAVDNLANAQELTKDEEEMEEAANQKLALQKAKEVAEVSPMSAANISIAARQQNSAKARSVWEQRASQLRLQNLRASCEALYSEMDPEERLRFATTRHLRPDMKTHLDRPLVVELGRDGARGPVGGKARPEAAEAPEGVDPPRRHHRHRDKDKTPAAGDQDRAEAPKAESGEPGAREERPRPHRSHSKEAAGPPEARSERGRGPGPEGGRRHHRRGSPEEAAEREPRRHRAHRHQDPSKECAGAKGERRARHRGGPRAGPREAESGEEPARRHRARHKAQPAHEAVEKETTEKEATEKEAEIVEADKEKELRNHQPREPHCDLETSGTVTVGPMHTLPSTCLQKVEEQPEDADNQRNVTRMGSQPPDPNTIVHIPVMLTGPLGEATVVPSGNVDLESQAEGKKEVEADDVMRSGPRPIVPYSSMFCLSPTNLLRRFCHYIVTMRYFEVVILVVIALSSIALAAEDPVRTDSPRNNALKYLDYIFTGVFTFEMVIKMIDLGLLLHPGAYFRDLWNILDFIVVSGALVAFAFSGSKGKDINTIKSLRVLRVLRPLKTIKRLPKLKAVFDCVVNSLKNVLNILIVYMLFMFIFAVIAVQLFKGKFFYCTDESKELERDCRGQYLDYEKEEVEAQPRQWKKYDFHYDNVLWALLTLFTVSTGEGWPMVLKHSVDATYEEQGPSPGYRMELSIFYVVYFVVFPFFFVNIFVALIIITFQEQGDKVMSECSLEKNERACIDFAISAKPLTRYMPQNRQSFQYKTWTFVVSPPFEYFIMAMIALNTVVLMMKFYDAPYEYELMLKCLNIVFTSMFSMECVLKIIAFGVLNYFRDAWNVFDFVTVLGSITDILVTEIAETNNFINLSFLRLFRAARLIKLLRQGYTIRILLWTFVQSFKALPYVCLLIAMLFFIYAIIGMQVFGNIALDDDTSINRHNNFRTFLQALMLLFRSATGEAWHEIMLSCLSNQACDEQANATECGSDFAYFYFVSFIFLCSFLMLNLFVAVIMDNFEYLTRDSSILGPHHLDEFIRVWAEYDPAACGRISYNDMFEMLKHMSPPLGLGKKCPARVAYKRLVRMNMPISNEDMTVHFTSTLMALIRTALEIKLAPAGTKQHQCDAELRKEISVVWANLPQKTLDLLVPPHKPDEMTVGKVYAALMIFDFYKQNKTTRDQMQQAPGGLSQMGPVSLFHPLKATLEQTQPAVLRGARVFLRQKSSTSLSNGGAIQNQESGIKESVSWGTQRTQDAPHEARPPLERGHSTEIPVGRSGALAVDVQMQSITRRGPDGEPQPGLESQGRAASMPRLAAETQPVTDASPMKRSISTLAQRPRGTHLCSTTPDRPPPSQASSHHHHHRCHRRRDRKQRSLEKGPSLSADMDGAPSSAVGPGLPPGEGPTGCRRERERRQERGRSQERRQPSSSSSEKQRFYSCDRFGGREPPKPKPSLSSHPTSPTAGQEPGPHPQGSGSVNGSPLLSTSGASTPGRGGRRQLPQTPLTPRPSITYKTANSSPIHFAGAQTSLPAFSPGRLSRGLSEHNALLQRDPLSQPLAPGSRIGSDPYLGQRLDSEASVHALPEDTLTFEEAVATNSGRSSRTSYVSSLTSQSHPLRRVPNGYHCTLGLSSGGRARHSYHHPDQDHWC
T3 sequence (Q02410 whole entry, the tested form may be a part): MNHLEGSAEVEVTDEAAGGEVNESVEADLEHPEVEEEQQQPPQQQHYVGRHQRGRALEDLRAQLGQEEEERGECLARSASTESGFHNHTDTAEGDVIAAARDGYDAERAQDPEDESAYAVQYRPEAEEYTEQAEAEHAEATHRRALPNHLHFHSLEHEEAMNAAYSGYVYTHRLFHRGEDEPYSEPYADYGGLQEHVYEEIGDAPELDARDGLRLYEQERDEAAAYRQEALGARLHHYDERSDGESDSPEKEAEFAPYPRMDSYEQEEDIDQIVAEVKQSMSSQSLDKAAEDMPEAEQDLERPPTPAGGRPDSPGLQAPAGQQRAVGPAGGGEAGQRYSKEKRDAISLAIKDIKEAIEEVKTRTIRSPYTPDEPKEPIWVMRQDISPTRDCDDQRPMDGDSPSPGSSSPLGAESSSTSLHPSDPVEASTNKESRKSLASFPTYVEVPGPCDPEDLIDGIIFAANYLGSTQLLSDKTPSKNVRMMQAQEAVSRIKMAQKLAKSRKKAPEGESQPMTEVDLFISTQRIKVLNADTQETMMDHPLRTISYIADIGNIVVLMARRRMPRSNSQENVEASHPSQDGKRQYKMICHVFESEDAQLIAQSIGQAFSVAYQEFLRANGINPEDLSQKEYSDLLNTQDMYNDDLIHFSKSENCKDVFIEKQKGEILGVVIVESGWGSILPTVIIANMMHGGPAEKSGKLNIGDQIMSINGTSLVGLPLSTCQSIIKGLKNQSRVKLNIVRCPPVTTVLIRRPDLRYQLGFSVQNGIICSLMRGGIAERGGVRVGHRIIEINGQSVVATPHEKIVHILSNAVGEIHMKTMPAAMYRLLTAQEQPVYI

[5] = molecular target: T4, Tyrosine-protein phosphatase non-receptor type 22 (Homo sapiens, UniProt Q9Y2R2); assay: LYP phosphatase inhibition for selectivity, dose response, selectivity assay for LMPTP inhibitor project, biochemical, fluorescence, LYP catalytic domain (AID 652006); format: functional; details: read-out: IC50_Mean
T4 sequence (Q9Y2R2 whole entry): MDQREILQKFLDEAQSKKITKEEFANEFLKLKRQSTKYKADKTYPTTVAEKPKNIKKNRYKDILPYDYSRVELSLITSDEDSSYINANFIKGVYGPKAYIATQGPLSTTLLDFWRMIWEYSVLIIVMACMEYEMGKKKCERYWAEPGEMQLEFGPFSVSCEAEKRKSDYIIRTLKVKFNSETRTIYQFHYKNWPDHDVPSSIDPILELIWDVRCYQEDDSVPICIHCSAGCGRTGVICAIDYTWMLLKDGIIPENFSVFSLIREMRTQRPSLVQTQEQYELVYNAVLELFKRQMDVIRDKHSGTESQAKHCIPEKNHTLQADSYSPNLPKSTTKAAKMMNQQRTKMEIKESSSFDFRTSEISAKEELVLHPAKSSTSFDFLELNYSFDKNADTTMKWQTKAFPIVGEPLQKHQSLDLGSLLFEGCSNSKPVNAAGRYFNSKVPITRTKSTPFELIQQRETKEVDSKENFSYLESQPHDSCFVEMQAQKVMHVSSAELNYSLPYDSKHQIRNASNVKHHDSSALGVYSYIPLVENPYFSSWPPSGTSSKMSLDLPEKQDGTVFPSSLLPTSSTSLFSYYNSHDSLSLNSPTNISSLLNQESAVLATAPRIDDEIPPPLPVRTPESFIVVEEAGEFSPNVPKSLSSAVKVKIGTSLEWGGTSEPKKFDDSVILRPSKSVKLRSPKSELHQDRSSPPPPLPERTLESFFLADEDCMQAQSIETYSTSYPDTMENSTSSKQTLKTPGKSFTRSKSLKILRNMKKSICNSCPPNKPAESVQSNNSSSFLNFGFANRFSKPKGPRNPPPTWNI

[6] = molecular target: T2, Small ubiquitin-related modifier 1; assay: inhibitors of SUMO1 peptide binding, dose response, biochemical, fluorescence polarization, uHTS hits (AID 624382); format: functional; details: read-out: IC50_Mean
[7] = molecular target: T5, Carboxy-terminal domain RNA polymerase II polypeptide A small phosphatase 1 (Homo sapiens, UniProt Q9GZU7); assay: inhibitors of CTDSP1, concentration-response testing, biochemical assay, absorbance-based, actives from ultra-high-throughput screening (AID 540297); format: functional
T5 sequence (Q9GZU7 whole entry): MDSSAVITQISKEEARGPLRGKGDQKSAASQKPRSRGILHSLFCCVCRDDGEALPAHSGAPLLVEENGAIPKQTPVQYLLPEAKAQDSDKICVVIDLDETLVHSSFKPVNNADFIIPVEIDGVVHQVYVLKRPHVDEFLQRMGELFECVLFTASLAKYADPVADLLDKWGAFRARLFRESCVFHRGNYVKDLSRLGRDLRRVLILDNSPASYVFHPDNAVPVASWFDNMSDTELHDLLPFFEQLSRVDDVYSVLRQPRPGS

[8] = molecular target: T3, Voltage-gated N-type calcium channel alpha-1B subunit/Amyloid beta A4 precursor protein-binding family A member 1; format: protein assay; remark: listed apart in the source
[9] = molecular target: T6, Low molecular weight phosphotyrosine protein phosphatase (Homo sapiens, UniProt P24666); format: functional; details: read-out: IC50_Mean;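 also: Dose-response confirmation assay measuring inhibition of LMPTP enzyme activity by fluorescence intensity read-out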
T6 sequence (P24666 whole entry): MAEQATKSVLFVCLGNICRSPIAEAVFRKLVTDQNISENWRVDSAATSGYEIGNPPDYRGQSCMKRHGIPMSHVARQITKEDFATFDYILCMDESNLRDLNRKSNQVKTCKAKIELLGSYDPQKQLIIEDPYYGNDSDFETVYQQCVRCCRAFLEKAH

[10] = molecular target: T7, Neuropeptides B/W receptor type 1 (Homo sapiens, UniProt P48145); assay: GPR7 antagonist potency, late-stage follow-up, cell-based, fluorescence, dose response, set 5 (AID 588566); format: functional
T7 sequence (P48145 whole entry): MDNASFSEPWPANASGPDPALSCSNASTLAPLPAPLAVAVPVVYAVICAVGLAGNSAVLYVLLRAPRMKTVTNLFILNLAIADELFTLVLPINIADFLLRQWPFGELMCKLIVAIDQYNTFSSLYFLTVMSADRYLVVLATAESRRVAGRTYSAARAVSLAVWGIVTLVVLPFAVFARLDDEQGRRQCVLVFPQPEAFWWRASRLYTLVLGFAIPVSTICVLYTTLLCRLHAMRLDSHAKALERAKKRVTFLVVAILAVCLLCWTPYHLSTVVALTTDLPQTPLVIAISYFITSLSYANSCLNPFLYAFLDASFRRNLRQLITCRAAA

[11] = molecular target: Melanin-concentrating hormone receptor 1 (Homo sapiens, UniProt Q99705); assay: Late-stage fluorescence-based counterscreen for antagonists of the G-protein coupled receptor 7 (GPR7): cell-based dose response assay to identify antagonists of the melanin-concentrating hormone receptor 1 (MCHR1) Set 5.; format: functional
Sequence of Melanin-concentrating hormone receptor 1 (Q99705 whole entry): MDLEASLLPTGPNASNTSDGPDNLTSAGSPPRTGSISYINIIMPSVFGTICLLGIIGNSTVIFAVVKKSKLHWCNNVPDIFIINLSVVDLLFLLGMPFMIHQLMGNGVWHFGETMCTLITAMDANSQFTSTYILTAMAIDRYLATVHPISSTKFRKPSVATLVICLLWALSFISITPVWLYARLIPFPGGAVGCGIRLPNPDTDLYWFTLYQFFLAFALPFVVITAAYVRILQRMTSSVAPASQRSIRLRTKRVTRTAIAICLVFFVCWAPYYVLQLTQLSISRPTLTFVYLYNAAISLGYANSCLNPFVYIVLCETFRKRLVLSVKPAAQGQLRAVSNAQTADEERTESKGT

[12] = Vero cell cytotoxicity, cytotoxicity control for M. tuberculosis inhibitor project, purified and synthesized samples, set 3 (AID 504684); format: functional
[13] = THP-1 cell cytotoxicity, cytotoxicity control, set 4 (AID 504911); format: functional; details: Mycobacterium tuberculosis
[14] = Fluorescence-based cell-based high throughput dose response assay for inhibitors of the interaction of nucleotide-binding oligomerization domain containing 2 (NOD2) and the receptor-interacting serine-threonine kinase 2 (RIPK2).; format: functional; details: Homo sapiens
Beta Lactamase = Beta Lactamase (Pseudomonas aeruginosa, UniProt Q932Y6); assay: beta-lactamase reporter inhibitor potency, dose response, artefact control for NOD2-RIPK2 interaction inhibitor project, BLA reporter cells, FRET fluorescence (AID 651552); format: functional, cell-based
Sequence of Beta Lactamase (Q932Y6 whole entry, the tested form may be a part): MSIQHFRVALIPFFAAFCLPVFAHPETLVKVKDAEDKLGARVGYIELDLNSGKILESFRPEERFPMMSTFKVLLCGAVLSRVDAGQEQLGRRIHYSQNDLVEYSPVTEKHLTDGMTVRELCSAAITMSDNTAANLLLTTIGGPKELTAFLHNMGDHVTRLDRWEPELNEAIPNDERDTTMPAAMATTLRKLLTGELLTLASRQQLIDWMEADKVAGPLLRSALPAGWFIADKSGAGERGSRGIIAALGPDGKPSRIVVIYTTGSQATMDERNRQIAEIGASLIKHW

Fatty acid synthase = Fatty acid synthase (Homo sapiens, UniProt P49327); assay: FAS thioesterase domain inhibitors, dose response, biochemical, kinetic fluorescence intensity (AID 624326); format: functional;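 also: rate of fluorescence rise from hydrolysis of a fluorogenic O-methyl fluorescein ester substrate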
[15] = molecular target: Hepatocyte nuclear factor 4-alpha (Homo sapiens, UniProt P41235); format: functional, cell-based;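 also: biochemical luminescence-based dose-response counterscreen measuring inhibition of HNF4 dimerization, run alongside a screen for blockers of ABHD5–perilipin-5 interaction; split luciferase complementation of HNF4 fusion proteins in cell lysate measuring dimerization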
Sequence of Hepatocyte nuclear factor 4-alpha (P41235 whole entry, the tested form may be a part): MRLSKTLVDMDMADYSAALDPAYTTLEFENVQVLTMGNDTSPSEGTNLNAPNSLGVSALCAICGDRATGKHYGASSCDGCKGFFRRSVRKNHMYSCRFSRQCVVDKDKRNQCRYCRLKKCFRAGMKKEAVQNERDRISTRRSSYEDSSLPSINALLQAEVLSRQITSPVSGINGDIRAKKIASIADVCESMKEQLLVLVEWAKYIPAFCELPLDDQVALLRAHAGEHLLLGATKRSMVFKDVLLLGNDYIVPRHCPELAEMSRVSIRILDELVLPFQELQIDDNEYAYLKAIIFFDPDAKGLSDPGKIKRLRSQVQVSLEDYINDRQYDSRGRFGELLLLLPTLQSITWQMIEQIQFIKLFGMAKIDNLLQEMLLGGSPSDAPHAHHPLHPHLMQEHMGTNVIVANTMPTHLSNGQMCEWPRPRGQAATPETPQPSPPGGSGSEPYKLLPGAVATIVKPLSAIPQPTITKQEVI

Sequence of Photoreceptor-specific nuclear receptor (Q9Y5X4 whole entry, the tested form may be a part): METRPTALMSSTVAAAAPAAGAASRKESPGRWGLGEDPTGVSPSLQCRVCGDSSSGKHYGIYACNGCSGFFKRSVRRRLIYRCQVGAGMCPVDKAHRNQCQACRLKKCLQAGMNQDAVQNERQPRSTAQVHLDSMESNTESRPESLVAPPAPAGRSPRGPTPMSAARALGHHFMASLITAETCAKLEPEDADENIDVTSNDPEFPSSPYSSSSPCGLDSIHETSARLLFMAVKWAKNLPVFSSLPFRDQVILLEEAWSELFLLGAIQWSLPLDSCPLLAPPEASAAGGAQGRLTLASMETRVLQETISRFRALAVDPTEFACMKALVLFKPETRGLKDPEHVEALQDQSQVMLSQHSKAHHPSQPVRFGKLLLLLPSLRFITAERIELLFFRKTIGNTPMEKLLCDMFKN

**Q.** For Cc1sc2ncnc(NCC(O)c3ccccc3)c2c1C (stereo unspecified), which IC50 [1] is on record?
**A.** Its IC50 is 20.9 µM (inactive).

**Q.** What about the AC50 (INS1) of the same compound?
**A.** The AC50 was 5.29 µM (active).

**Q.** With Nc1nccc(-c2ccc(-n3cnc4ccccc43)cc2)n1 as the compound, how does the IC50 (Interleukin-8) read?
**A.** Its IC50 is 10.2 µM (inactive).

**Q.** With CCOC(=O)c1cc(-c2ccc(N3CCOCC3)cc2)nn1-c1ccccc1C(=O)O as the compound, how does the IC50 [2] read?
**A.** The IC50 was 6.99 µM (active).

**Q.** What about the IC50 [3] of the same compound?
**A.** The IC50 was 1.51 µM (active).

**Q.** And the IC50 [4]?
**A.** The IC50 was > 50 µM (inactive).

**Q.** And the IC50 [5]?
**A.** Its IC50 is 8.42 µM (active).

**Q.** What about the IC50 [6] of the same compound?
**A.** Its IC50 is > 66.6 µM (inactive).

**Q.** What about the IC50 [7] of the same compound?
**A.** Its IC50 is 5.98 µM (active).

**Q.** What about the IC50 [8] of the same compound?
**A.** The IC50 was 5.98 µM (active).

**Q.** What about the IC50 [9] of the same compound?
**A.** Its IC50 is 12.3 µM (active).

**Q.** What does the source list for CCOC(=O)Cc1c(Cl)cnn(Cc2cccc3ccccc23)c1=O?
**A.** IC50 [10]: 10.3 µM (inactive); IC50 [11]: 10.9 µM (inactive)

**Q.** Which results are given for N#CC(c1cccnc1)c1c(Cl)cnn(Cc2cccc3ccccc23)c1=O (stereo unspecified)?
**A.** IC50 [10]: 0.975 µM (active); IC50 [11]: 4.56 µM (active)

**Q.** With Cc1[nH]c(SCc2ccccc2Cl)nc(=O)c1C as the compound, how does the CC50 [12] read?
**A.** The CC50 was > 100 µM (active).

**Q.** And the CC50 [13]?
**A.** The CC50 was > 100 µM (active).

**Q.** Which IC50 [14] does the source give for CCOC(=O)[C@]12Cc3ccccc3[C@H]1N(C1CCCCC1)C(=O)c1cc(OC)ccc12 here?
**A.** Its IC50 is 2.28 µM (active).

**Q.** And the IC50 (Beta Lactamase)?
**A.** The IC50 was 48 µM (inactive).

**Q.** And the IC50 (Fatty acid synthase)?
**A.** Its IC50 is 8.19 µM (active).

**Q.** For CCC(c1nc2ccccc2[nH]1)n1c(=O)c(-c2ccco2)nc2ccccc21 (stereo unspecified), which IC50 [15] is on record?
**A.** Its IC50 is 3.79 µM (active).
